According to patent publication US7834023B2 (Portola Pharmaceuticals, Inc., priority 2006, dated 2010):

Tests used:
[1] = system: human platelet-rich plasma (PRP); experiment: PRP assay: inhibition of ADP-mediated platelet aggregation in vitro; assay type: cell-based; conditions: ADP-induced aggregation
Description: The effect of testing the compound according to the invention on ADP-induced human platelet aggregation was assessed in a 96-well microtiter assay (see generally the procedures in Jantzen, H. M. et al. (1999) Thromb. Hemost. 81:111-117) or standard cuvette light transmittance aggregometry using either human platelet-rich plasma (PRP) or human washed platelets.
For preparation of human platelet-rich plasma for aggregation assays, human venous blood was collected from healthy, drug-free volunteers into 0.38% sodium citrate (0.013 M, pH 7.0 final). Platelet-rich plasma (PRP) is prepared by centrifugation of whole blood at 160×g for 20 minutes at room temperature. The PRP layer is removed, transferred to a new tube, and the platelet count is adjusted, if necessary, to achieve a platelet concentration of ˜3×10^8 platelets/ml using platelet-poor plasma (PPP). PPP is prepared by centrifugation of the remaining blood sample (after removal of PRP) for 20 minutes at 800×g. This preparation of PRP can subsequently be used for aggregation assays in either a 96-well plate or standard cuvette aggregometry.
For cuvette light transmittance aggregation assays, serial dilutions (1:3) of test compounds were prepared in 100% DMSO in a 96 well V-bottom plate (final DMSO concentration in the cuvette was 0.6%). The test compound (3 μl of serial dilutions in DMSO) was preincubated with PRP for 30-45 seconds prior to initiation of aggregation reactions, which were performed in a ChronoLog aggregometer by addition of agonist (5 or 10 μM ADP) to 490 μL of PRP at 37° C. In some cases, light transmittance aggregometry was performed using 490 μL of washed platelets (prepared as described above) at 37° C., and aggregation was initiated by addition of 5 μM ADP and 0.5 mg/ml human fibrinogen (American Diagnostics, Inc., Greenwich, Conn.). The aggregation reaction is recorded for ˜5 min, and maximum extent of aggregation is determined by the difference in extent of aggregation at baseline, compared to the maximum aggregation that occurs during the five minute period of the assay. Inhibition of aggregation was calculated as the maximum aggregation observed in the presence of inhibitor, compared to that in the absence of inhibitor. IC50s were derived by non-linear regression analysis using the Prism software (GraphPad, San Diego, Calif.).
Inhibition of ADP-dependent aggregation was also determined in 96-well flat-bottom microtiter plates using a microtiter plate shaker and plate reader similar to the procedure described by Frantantoni et al., Am. J. Clin. Pathol. 94, 613 (1990). All steps are performed at room temperature. For 96-well plate aggregation using platelet-rich plasma (PRP), the total reaction volume of 0.2 ml/well includes 180 μl of PRP (˜3×10^8 platelets/ml, see above), 6 μl of either serial dilution of test compounds in 20% DMSO or buffer (for control wells), and 10 μl of 20×ADP agonist solution (100 μM). The OD of the samples is then determined at 450 nm using a microtiter plate reader (Softmax, Molecular Devices, Menlo Park, Calif.) resulting in the 0 minute reading. The plates are then agitated for 5 min on a microtiter plate shaker and the 5 minute reading is obtained in the plate reader. Aggregation is calculated from the decrease of OD at 450 nm at t=5 minutes compared to t=0 minutes and is expressed as % of the decrease in the ADP control samples after correcting for changes in the unaggregated control samples. IC50s were derived by non-linear regression analysis.

P2Y12 receptor = target: T1, P2Y12 receptor (Homo sapiens, UniProt Q9H244); experiment: platelet ADP receptor binding assay (ARB): inhibition of [3H]2-MeS-ADP binding to platelets; conditions: [3H]2-MeS-ADP binding to apyrase-washed human platelets
T1 construct: endogenous in cells; host or cells: human platelets (outdated from blood banks or fresh), apyrase-washed, whole
In short: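 Apyrase-washed human platelets (1×10^8 per well) were preincubated 5 min with serial compound dilutions in Hepes-Tyrode's/0.1% BSA/0.6% DMSO, then incubated 15 min at room temperature with 1 nM [3H]2-MeS-ADP. Filter-bound radioactivity gave specific binding (nonspecific: 10 μM 2-MeS-ADP), and IC50s came from non-linear regression.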

T1 sequence (Q9H244 whole entry): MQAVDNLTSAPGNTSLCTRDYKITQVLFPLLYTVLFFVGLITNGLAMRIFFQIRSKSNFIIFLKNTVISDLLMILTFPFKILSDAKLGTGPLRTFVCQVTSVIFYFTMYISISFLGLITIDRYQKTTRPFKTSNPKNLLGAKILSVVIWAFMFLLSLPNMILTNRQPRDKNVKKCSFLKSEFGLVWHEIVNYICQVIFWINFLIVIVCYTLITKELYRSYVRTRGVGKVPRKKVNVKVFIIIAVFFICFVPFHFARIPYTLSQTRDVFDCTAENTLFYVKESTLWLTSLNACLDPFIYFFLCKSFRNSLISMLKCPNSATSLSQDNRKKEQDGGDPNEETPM

Row | SMILES | IC50 ([1]; Homo sapiens, Platelet) [nM] | IC50 (P2Y12 receptor) [nM] | IC50 [1] [nM]
1 | CNc1cc2c(cc1F)C(=O)N(c1ccc(C(=O)NC(C(N)=O)c3ccc(Cl)s3)cc1)CO2 (stereo not drawn) [Compound 70] | 10000 to 30000 | 50 to 500 | 
2 | CNc1cc2[nH]c(=O)n(-c3ccc(C(=O)NC(C(=O)OCCN4CCOCC4)c4ccc(Cl)s4)cc3)c(=O)c2cc1F (stereo not drawn) [Compound 35, 2-morpholinoethyl 2-(5-chlorothiophen-2-yl)-2-(4-(6-fluoro-7-(methylamino)-2,4-dioxo-1,2-dihydroquinazolin-3(4H)-yl)benzamido)acetate] | 10000 to 30000 | 50 to 500 | 
3 | CNc1cc2[nH]c(=O)n(-c3ccc(C(=O)NC(c4nnn[nH]4)c4ccc(Cl)s4)cc3)c(=O)c2cc1F (stereo not drawn) [Compound 7, N-((5-chlorothiophen-2-yl)(1H-tetrazol-5yl)methyl)-4-(6-fluoro-7-(methylamino)-2,4-dioxo-1,2-dihydroquinazolin-3(4H)-yl)benzamide] | < 10000 | < 50 | 
4 | CNc1cc2[nH]c(=O)n(-c3ccc(C(=O)NC(C(=O)O)c4ccc(Cl)s4)cc3)c(=O)c2cc1F (stereo not drawn) [Compound 13, 2-(5-chlorothiophen-2-yl)-2-(4-(6-fluoro-7-(methylamino)-2,4-dioxo-1,2-dihydroquinazolin-3(4H)-yl)benzamido)acetic acid] | < 10000 | 50 to 500 | 
5 | CNc1cc2c(=O)n(-c3ccc(C(=O)NC(c4noc(=O)[nH]4)c4ccc(Cl)s4)cc3)c(=O)[nH]c2cc1F (stereo not drawn) [Compound 50, N-((5-chlorothiophen-2-yl)(5-oxo-4,5-dihydro-1,2,4-oxadiazol-3-yl)methyl)-4-(7-fluoro-6-(methylamino)-2,4-dioxo-1,2-dihydroquinazolin-3(4H)-yl)benzamide] | > 30000 | 50 to 500 | 
6 | CNc1cc2[nH]c(=O)n(-c3ccc(C(=O)NC(c4noc(=O)[nH]4)c4ccc(Cl)s4)cc3)c(=O)c2cc1F (stereo not drawn) [Compound 21, N-((5-chlorothiophen-2-yl)(5-oxo-4,5-dihydro-1,2,4-oxadiazol-3-yl)methyl)-4-(6-fluoro-7-(methylamino)-2,4-dioxo-1,2-dihydroquinazolin-3(4H)-yl)benzamide] | < 10000 | < 50 | 
7 | CNc1cc2[nH]c(=O)n(-c3ccc(C(=O)NC(C(=O)O)c4ccc(Cl)s4)c(F)c3)c(=O)c2cc1F (stereo not drawn) [Compound 44, 2-(5-chlorothiophen-2-yl)-2-(2-fluoro-4-(6-fluoro-7-(methylamino)-2,4-dioxo-1,2-dihydroquinazolin-3(4H)-yl)benzamido)acetic acid] | 10000 to 30000 | 50 to 500 | 
8 | CNc1cc2[nH]c(=O)n(-c3ccc(C(=O)NC(C(=O)O)c4ccc(Cl)s4)cc3)c(=O)c2cc1F (stereo not drawn) [Compound 5, 2-(5-chlorothiophen-2-yl)-2-(4-(6-fluoro-7-(methylamino)-2,4-dioxo-1,2-dihydroquinazolin-3(4H)-yl)benzamido)acetic acid] |  | < 50 | 10000 to 30000
9 | CNc1cc2c(cc1F)C(=O)N(c1ccc(C(=O)NC(c3nnn(C)n3)c3ccc(Cl)s3)cc1)CO2 (stereo not drawn) [Compound 74, N-((5-chlorothiophen-2-yl)(2-methyl-2H-tetrazol-5-yl)methyl)-4-(6-fluoro-7-(methylamino)-4-oxo-2H-benzo[e][1,3]oxazin-3(4H)-yl)benzamide] | > 30000 | 50 to 500 | 
10 | CNc1cc2c(cc1F)C(=O)N(c1ccc(C(=O)N[C@@H](C(=O)O)c3ccc(Cl)s3)cc1)CO2 [Compound 62, (S)-2-(5-chlorothiophen-2-yl)-2-(4-(6-fluoro-7-(methylamino)-4-oxo-2H-benzo[e][1,3]oxazin-3(4H)-yl)benzaamido)acetic acid] | > 30000 | < 50 | 
11 | CNc1cc2[nH]c(=O)n(-c3ccc(C(=O)NC(C(=O)O)c4ccc(Cl)s4)c(C)c3)c(=O)c2cc1F (stereo not drawn) [Compound 41, 2-(5-chlorothiophen-2-yl)-2-(4-(6-fluoro-7-(methylamino)-2,4-dioxo-1,2-dihydroquinazolin-3(4H)-yl)-2-methylbenzamido)acetic acid] | 10000 to 30000 | 50 to 500 | 
12 | CNc1cc2[nH]c(=O)n(-c3ccc(C(=O)NC(c4cccc(Cl)c4)c4nnn[nH]4)cc3)c(=O)c2cc1F (stereo not drawn) [Compound 11, N-((3-chlorophenyl)(1H-tetrazol-5-yl)methyl)-4-(6-fluoro-7-(methylamino)-2,4-dioxo-1,2-dihydroquinazolin-3(4H)-yl)benzamide] | > 30000 | 50 to 500 | 
